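A five-concentration, 48-hour dose response in 96-well plates underlies each endpoint, interpolated linearly between surrounding concentrations. Here, GI50 denotes the concentration required for 50% inhibition of growth. Definition used: TGI = concentration required for complete inhibition of growth.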
Legend:
Assay in all cases: DTP human tumour cell line panel, 48 h
OVCAR-5 ovarian = system: OVCAR-5 ovarian
OVCAR-8 ovarian = system: OVCAR-8 ovarian
UACC-257 melanoma = system: UACC-257 melanoma
COLO 205 colon = system: COLO 205 colon
HCT-116 colon = system: HCT-116 colon
UO-31 renal = system: UO-31 renal
SK-MEL-2 melanoma = system: SK-MEL-2 melanoma
NCI/ADR-RES ovarian = system: NCI/ADR-RES ovarian

Row | SMILES | TGI (OVCAR-5 ovarian) [µM] | TGI (OVCAR-8 ovarian) [µM] | TGI (UACC-257 melanoma) [µM] | TGI (COLO 205 colon) [µM] | TGI (HCT-116 colon) [µM] | TGI (UO-31 renal) [µM] | TGI (SK-MEL-2 melanoma) [µM] | TGI (NCI/ADR-RES ovarian) [µM] | GI50 (SK-MEL-2 melanoma) [µM] | GI50 (OVCAR-5 ovarian) [µM] | GI50 (OVCAR-8 ovarian) [µM] | GI50 (UACC-257 melanoma) [µM] | GI50 (COLO 205 colon) [µM] | GI50 (HCT-116 colon) [µM] | GI50 (NCI/ADR-RES ovarian) [µM] | GI50 (UO-31 renal) [µM]
1 | CC12CC(C/C1=N/O)C(C)(C)C2 (configuration not stated) | > 100 | > 100 | > 100 | > 100 | > 100 | > 100 |  |  |  |  |  |  |  |  |  | 
2 | CNc1ccc(S(=O)Nc2ccccc2)cc1 (configuration not stated) | > 100 | > 100 | > 100 | 83.5 | > 100 | > 100 | > 100 | > 100 |  |  |  |  |  |  |  | 
3 | O=C1C=C(N2CCN(c3ccccn3)CC2)C(=O)c2c(O)ccc(O)c21 | > 46.4 | > 90.8 | 23.4 | 16 | 10.3 | > 46.4 | 18.6 | 11.5 |  |  |  |  |  |  |  | 
4 | Nc1ncc(/C=N/O)c(NCC2(CO)CC(CCc3ccccc3)C2)n1 (configuration not stated) | 44.1 | 24.1 | 24.4 | 27.2 | 18 | 26.9 | 39.2 | 70.6 |  |  |  |  |  |  |  | 
5 | Oc1[nH]c2ccccc2c1/C=c1/cc2c(c(-c3ccc(C(F)(F)F)cc3)n1)=Nc1ccccc1-2 | 33.8 | 28.1 | 42.3 | 5.13 | 10.1 | 20.7 | 28.7 | 18.8 | 8.66 | 11.8 | 4.99 | 13.6 | 1.95 | 2.9 | 1.9 | 2.55
6 | O=C1CSC2(CC(/C=C/c3ccccc3Br)=NN2c2cccc(S(=O)(=O)O)c2)N1c1nc2ccccc2s1 (configuration not stated) | > 100 | > 100 | > 100 | > 100 | > 100 | > 100 | > 100 | > 100 |  |  |  |  |  |  |  | 
7 | CC(C)(C)c1ccc(-c2nnc(-c3cc(C#N)cc(-c4nnc(-c5ccc(C(C)(C)C)cc5)o4)c3)o2)cc1 | > 100 | > 100 | > 100 | > 100 | > 100 | > 100 | > 100 | > 100 |  |  |  |  |  |  |  | 
8 | COC(=O)C(NC(=O)CSc1nnc(COc2ccc(Cl)cc2)n1-c1ccccc1)C(C)C (configuration not stated) | 75.9 | 64.7 | 34 | 48.6 | 31.4 | > 100 | 35.1 | 82.1 |  |  |  |  |  |  |  | 
9 | CC(=O)c1ccc(NC(=O)CSc2nc(C)nc3c2sc(=S)n3-c2ccccc2)cc1 | > 3.16 | > 10 | > 3.16 | > 3.16 | > 3.16 | > 10 | > 3.16 | > 3.16 |  |  |  |  |  |  |  | 
10 | Cc1ccc2c(c1)CC1(C2=O)[C@H](c2ccccc2)C2C(=O)c3ccc(C)cc3C2[C@H]1c1ccccc1 (some centres not stated) | > 100 | > 100 | > 100 | > 100 | > 100 | > 100 |  |  |  |  |  |  |  |  |  | 
11 | N#CCCC1(CCC#N)CCCCCCC(CCC#N)(CCC#N)C(O)C1O (configuration not stated) | > 100 | > 100 | > 100 | > 100 | > 100 | > 100 | > 100 | > 100 |  |  |  |  |  |  |  | 
12 | CC12CC(c3ccccc3O1)C(C(=O)Nc1cccc(F)c1)C(=O)N2 (configuration not stated) | > 100 | 80.6 | > 100 | > 100 | > 100 | 24.9 | > 100 | 81.9 |  |  |  |  |  |  |  | 
13 | COC(=O)C(C(=O)C(=O)NC1Nc2ccc(C)cc2S1)c1nc2ccc(Cl)cc2[nH]c1=O (configuration not stated) | > 100 | > 100 | > 100 |  | > 100 | > 100 | > 100 | > 100 |  |  |  |  |  |  |  | 
14 | O=C1OI(C#Cc2ccccc2)c2ccccc21 | > 40.1 | 36.4 | 25.2 | 9.11 | 5.8 | 14.3 | 44.1 | > 100 |  |  |  |  |  |  |  | 
15 | Cc1cn([C@H]2[C@@H](CO)C[C@H]2O)c(=O)[nH]c1=O | > 100 | > 100 | > 100 | > 100 | > 100 | > 100 | > 100 | > 100 |  |  |  |  |  |  |  | 
16 | CCCCCCOc1ccc(C(=N)N(CCCC)CCCC)c2ccccc12 | 2.94 |  | 3.06 |  |  | 2.55 | 3.23 | 2.79 | 1.72 | 1.53 |  | 1.6 |  |  | 1.43 | 1.14
17 | NC(=S)N/N=C\CC(O)(C(F)(F)F)C(F)(F)F |  | > 10 | > 10 | > 10 | > 10 | > 10 | > 10 | > 10 |  |  |  |  |  |  |  | 
18 | CCN(CC)CCN(C)CCc1ccc(Br)cc1 | > 100 | > 100 | > 100 | 39.5 | > 100 | > 100 | > 100 | > 100 |  |  |  |  |  |  |  | 
19 | CNc1ccc(Cl)cc1S(=O)(=O)c1ccccc1[N+](=O)[O-] | > 100 | > 100 |  | > 100 |  | > 100 | > 100 | > 100 |  |  |  |  |  |  |  | 
20 | COC1=CC(=O)C2=C(C1=O)[C@H]1CC[C@]3(C)[C@@H](OC(C)=O)CC[C@H]3[C@@H]1CC2 | > 100 | 53.9 | > 100 | > 100 | > 100 | > 100 | > 100 | > 100 |  |  |  |  |  |  |  | 
21 | COc1ccc(/C=C2\CCC(CNc3ccc(Br)cc3)C2=O)cc1 (configuration not stated) | > 100 | > 100 | > 100 | > 100 |  | > 100 |  | > 100 |  |  |  |  |  |  |  | 
22 | CCCNC(=O)CCC(C)[C@H]1CCC2C3C(C[C@H](OC(C)=O)[C@@]21C)[C@@]1(C)CCC2(C[C@H]1C[C@H]3OC(C)=O)OOC1(CCCCC1)OO2 (some centres not stated) | 25.8 | 4.3 | > 100 | 3.64 | > 61.5 | 0.232 | 7.05 | 8.45 |  |  |  |  |  |  |  | 
23 | O=C1CC2(CCNCC2)C(=O)N1N1CCOCC1 | > 100 | > 100 | > 100 | > 100 | > 100 | > 100 | > 100 | > 100 |  |  |  |  |  |  |  | 
24 | CCOC(=O)/C(C#N)=C/N(CC)/N=C/c1ccccc1 | > 100 | > 100 | > 100 | > 100 | > 100 | > 100 | > 100 | > 100 |  |  |  |  |  |  |  | 

Reference: PubChem BioAssay (NCI)
